The numbers were not newly measured in Sander's compilation of Henry's law constants (doi:10.1016/s0045-6535(00)00505-1), which cites them from elsewhere.

SMILES strings stand for the structures.

This data set can be described thus: Henry solubility constant Hcp at 298.15 K (mol/(m3 Pa)). Conditions: reference: Staudinger and Roberts (2001); cited value.

Regarding `ClCC(Cl)(Cl)Cl` [1,1,1,2-tetrachloroethane], the “Henry solubility constant Hcp” value was 0.024.
Turning to `CC(Cl)(Cl)Cl` [1,1,1-trichloroethane], the “Henry solubility constant Hcp” value is 0.00059.
As for `ClCC(Cl)Cl` [1,1,2-trichloroethane], the “Henry solubility constant Hcp” value is 0.011.
As to `C=C(Cl)Cl` [1,1-dichloroethene], the “Henry solubility constant Hcp” value is 0.00034.
`ClCC(Cl)CCl` [1,2,3-trichloropropane]: the “Henry solubility constant Hcp” value is 0.036.
`CC(Cl)CCl` (centres undefined) [1,2-dichloropropane]: the “Henry solubility constant Hcp” value was 0.0034.
On to `Cc1ccccc1C` [1,2-dimethylbenzene], for which the “Henry solubility constant Hcp” value was 0.002.
On to `Cc1cccc(C)c1` [1,3-dimethylbenzene], for which the “Henry solubility constant Hcp” value is 0.0014.
Consider `Cc1ccc(C)cc1` [1,4-dimethylbenzene], for which the “Henry solubility constant Hcp” value is 0.0013.
On to `CCCCO[N+](=O)[O-]` [1-butyl nitrate], for which the “Henry solubility constant Hcp” value is 0.0088.
Turning to `CC(=O)c1ccccc1` [1-phenylethanone], the “Henry solubility constant Hcp” value was 1.1.
For `CC(=O)C(=O)O` [2-oxopropanoic acid], the “Henry solubility constant Hcp” value was 3000.
As for `CCCC(C)O[N+](=O)[O-]` (centres undefined) [2-pentyl nitrate], the “Henry solubility constant Hcp” value was 0.0037.
Consider `CC(C)c1ccccc1` [(2-propyl)-benzene], for which the “Henry solubility constant Hcp” value was 0.0012.
Consider `O=Cc1ccccc1` [benzaldehyde], for which the “Henry solubility constant Hcp” value is 0.38.
For the compound `c1ccccc1` [benzene], the “Henry solubility constant Hcp” value is 0.0017.
Take `ClC(Cl)Br` [bromodichloromethane]: the “Henry solubility constant Hcp” value is 0.004.
Turning to `CBr` [bromomethane], the “Henry solubility constant Hcp” value was 0.0017.
With `Clc1ccccc1` [chlorobenzene], the “Henry solubility constant Hcp” value was 0.0027.
Regarding `CCCl` [chloroethane], the “Henry solubility constant Hcp” value was 0.00084.
On to `C=CCl` [chloroethene], for which the “Henry solubility constant Hcp” value is 0.00039.
`ClC(Br)Br` [dibromochloromethane]: the “Henry solubility constant Hcp” value is 0.0086.
For `FC(F)(Cl)Cl` [dichlorodifluoromethane], the “Henry solubility constant Hcp” value is 3.1e-05.
On to `ClCCl` [dichloromethane], for which the “Henry solubility constant Hcp” value was 0.0036.
Consider `CSC` [dimethyl sulfide], for which the “Henry solubility constant Hcp” value was 0.0053.
With `CC#N` [ethanenitrile], the “Henry solubility constant Hcp” value is 0.51.
On to `CC(=O)OO` [ethanoic peroxyacid], for which the “Henry solubility constant Hcp” value is 7.3.
As to `CCc1ccccc1` [ethylbenzene], the “Henry solubility constant Hcp” value is 0.0013.
On to `OCOO` [hydroxymethyl hydroperoxide], for which the “Henry solubility constant Hcp” value was 16000.
With `CI` [iodomethane], the “Henry solubility constant Hcp” value is 0.002.
`CS` [methanethiol]: the “Henry solubility constant Hcp” value was 0.0028.
With `COO` [methyl hydroperoxide], the “Henry solubility constant Hcp” value is 3.1.
For the compound `Cc1ccccc1` [methylbenzene], the “Henry solubility constant Hcp” value is 0.0015.
Consider `CCCCC(=O)O` [pentanoic acid], for which the “Henry solubility constant Hcp” value was 23.
For the compound `CC(C)=O` [propanone], the “Henry solubility constant Hcp” value is 0.28.
Take `ClC(Cl)=C(Cl)Cl` [tetrachloroethene]: the “Henry solubility constant Hcp” value was 0.00059.
For the compound `ClC(Cl)(Cl)Cl` [tetrachloromethane], the “Henry solubility constant Hcp” value is 0.00034.
For the compound `BrC(Br)Br` [tribromomethane], the “Henry solubility constant Hcp” value was 0.017.
Consider `ClC=C(Cl)Cl` [trichloroethene], for which the “Henry solubility constant Hcp” value is 0.001.
